# Like-named read-outs stand apart in the source and are kept apart here.
# Columns and labels:
# [1] = molecular target: EPHA6 (Homo sapiens, UniProt Q9UF33); assay: single-point (1 uM) inhibition assay (ProQinase Kinase Profiler); format: biochemical; settings: 1 uM compound, read-out: % residual activity class (FIG. 3)
# [2] = molecular target: T1, HCK (Homo sapiens, UniProt P08631); assay: as above; format: biochemical; settings: 1 uM compound, read-out: % residual activity class (FIG. 3)
# T1 construct: purchased ProQinase
# [3] = molecular target: T2, TXK (Homo sapiens, UniProt P42681); assay: as above; format: biochemical; settings: 1 uM compound, read-out: % residual activity class (FIG. 3)
# T2 construct: purchased ProQinase
# [4] = molecular target: T3, SIK2 (Homo sapiens, UniProt Q9H0K1); assay: as above; format: biochemical; settings: read-out: % residual activity class (FIG. 3)
# T3 construct: purchased ProQinase
# [5] = molecular target: FYN (Homo sapiens, UniProt P06241); assay: as above; settings: read-out: % residual activity class (FIG. 3)
# [6] = molecular target: T4, PDGFR-alpha (Homo sapiens, UniProt P16234); assay: as above; format: biochemical; settings: read-out: % residual activity class (FIG. 3)
# T4 construct: purchased ProQinase
# [7] = test system: MDCK-wild type cells; settings: dog
# [8] = molecular target: T5, ACV-R1B (Homo sapiens, UniProt P36896); assay: single-point (1 uM) inhibition assay (ProQinase Kinase Profiler); format: biochemical; settings: read-out: % residual activity class (FIG. 3)
# T5 construct: purchased ProQinase
# [9] = molecular target: T6, FGR (Homo sapiens, UniProt P09769); assay: as above; format: biochemical; settings: 1 uM compound, read-out: % residual activity class (FIG. 3)
# T6 construct: purchased ProQinase
# [10] = molecular target: T7, ABL2 (Homo sapiens, UniProt P42684); assay: as above; format: biochemical; settings: 1 uM compound, read-out: % residual activity class (FIG. 3)
# T7 construct: purchased ProQinase
# [11] = molecular target: T8, ZAK (Homo sapiens, UniProt Q9NYL2); assay: as above; format: biochemical; settings: 1 uM compound, read-out: % residual activity class (FIG. 3)
# T8 construct: purchased ProQinase
# [12] = molecular target: T9, TEC (Homo sapiens, UniProt P42680); assay: as above; format: biochemical; settings: 1 uM compound, read-out: % residual activity class (FIG. 3)
# T9 construct: purchased ProQinase
# [13] = molecular target: T10, ACK1 (Homo sapiens, UniProt Q07912); assay: as above; format: biochemical; settings: 1 uM compound, read-out: % residual activity class (FIG. 3)
# T10 construct: purchased ProQinase
# [14] = test system: MDCK-MDR1 cells; settings: dog
# [15] = molecular target: T11, EPHA3 (Homo sapiens, UniProt P29320); assay: single-point (1 uM) inhibition assay (ProQinase Kinase Profiler); format: biochemical
# T11 construct: purchased ProQinase
# [16] = molecular target: T12, LYN (Homo sapiens, UniProt P07948); assay: as above; format: biochemical; settings: 1 uM compound, read-out: % residual activity class (FIG. 3)
# T12 construct: purchased ProQinase
# [17] = molecular target: T13, FRK (Homo sapiens, UniProt P42685); assay: as above; format: biochemical; settings: 1 uM compound, read-out: % residual activity class (FIG. 3)
# T13 construct: purchased ProQinase
# [18] = molecular target: T14, PDGFR-beta (Homo sapiens, UniProt P09619); assay: biochemical
# T14 construct: purchased ProQinase
# [19] = molecular target: T15, EPHB2 (Homo sapiens, UniProt P29323); assay: single-point (1 uM) inhibition assay (ProQinase Kinase Profiler); format: biochemical; settings: read-out: % residual activity class (FIG. 3)
# T15 construct: purchased ProQinase
# [20] = molecular target: T16, RIPK2 (Homo sapiens, UniProt O43353); assay: as above; format: biochemical; settings: 1 uM compound, read-out: % residual activity class (FIG. 3)
# T16 construct: purchased ProQinase
# [21] = molecular target: T17, SIK1 (Homo sapiens, UniProt P57059); assay: as above; format: biochemical; settings: read-out: % residual activity class (FIG. 3)
# T17 construct: purchased ProQinase
# [22] = molecular target: T18, RET (Homo sapiens, UniProt P07949); assay: as above; format: biochemical
# T18 construct: purchased ProQinase, Freiburg, Germany (Kinase Profiler panel)
# [23] = molecular target: T19, NLK (Homo sapiens, UniProt Q9UBE8); assay: as above; format: biochemical; settings: 1 uM compound, read-out: % residual activity class (FIG. 3)
# T19 construct: purchased ProQinase
# [24] = molecular target: ACV-R2B (Homo sapiens, UniProt Q13705); assay: biochemical; settings: read-out: % residual activity class (FIG. 3)
# [25] = molecular target: T20, BLK (Homo sapiens, UniProt P51451); assay: single-point (1 uM) inhibition assay (ProQinase Kinase Profiler); format: biochemical; settings: 1 uM compound, read-out: % residual activity class (FIG. 3)
# T20 construct: purchased ProQinase
# [26] = molecular target: T21, DDR2 (Homo sapiens, UniProt Q16832); assay: as above; format: biochemical; settings: 1 uM compound, read-out: % residual activity class (FIG. 3)
# T21 construct: purchased ProQinase, Freiburg, Germany (Kinase Profiler panel)
# [27] = molecular target: T22, ACV-RL1 (Homo sapiens, UniProt P37023); assay: as above; format: biochemical; settings: 1 uM compound, read-out: % residual activity class (FIG. 3)
# T22 construct: purchased ProQinase
# [28] = molecular target: T23, SIK3 (Homo sapiens, UniProt Q9Y2K2); assay: as above; format: biochemical; settings: read-out: % residual activity class (FIG. 3)
# T23 construct: purchased ProQinase
# [29] = molecular target: T24, ACV-R1 (Homo sapiens, UniProt Q04771); assay: as above; format: biochemical; settings: read-out: % residual activity class (FIG. 3)
# T24 construct: purchased ProQinase
# [30] = molecular target: T25, p38-alpha (Homo sapiens, UniProt Q16539); assay: as above; format: biochemical; settings: read-out: % residual activity class (FIG. 3)
# T25 construct: purchased ProQinase
# [31] = molecular target: T26, MAP4K5 (Homo sapiens, UniProt Q9Y4K4); assay: as above; format: biochemical; settings: read-out: % residual activity class (FIG. 3)
# T26 construct: purchased ProQinase
# [32] = molecular target: T27, EPHB1 (Homo sapiens, UniProt P54762); assay: as above; format: biochemical
# T27 construct: purchased ProQinase
# [33] = molecular target: T28, SRMS (Homo sapiens, UniProt Q9H3Y6); assay: as above; format: biochemical; settings: 1 uM compound, read-out: % residual activity class (FIG. 3)
# T28 construct: purchased ProQinase
# [34] = molecular target: T29, CSK (Homo sapiens, UniProt P41240); assay: as above; format: biochemical; settings: 1 uM compound, read-out: % residual activity class (FIG. 3)
# T29 construct: purchased ProQinase
# [35] = molecular target: T30, EPHB4 (Homo sapiens, UniProt P54760); assay: biochemical
# T30 construct: purchased ProQinase
# [36] = molecular target: T31, EPHA4 (Homo sapiens, UniProt P54764); assay: single-point (1 uM) inhibition assay (ProQinase Kinase Profiler); format: biochemical
# T31 construct: purchased ProQinase
# [37] = molecular target: T32, ACV-R2A (Homo sapiens, UniProt P27037); assay: as above; format: biochemical; settings: 1 uM compound, read-out: % residual activity class (FIG. 3)
# T32 construct: purchased ProQinase
# [38] = molecular target: T33, EPHA1 (Homo sapiens, UniProt P21709); assay: as above; format: biochemical
# T33 construct: purchased ProQinase
# [39] = human liver microsomal stability; format: in vitro ADME
# [40] = molecular target: T34, YES (Homo sapiens, UniProt P07947); assay: single-point (1 uM) inhibition assay (ProQinase Kinase Profiler); format: biochemical; settings: 1 uM compound, read-out: % residual activity class (FIG. 3)
# T34 construct: purchased ProQinase
# [41] = PDGFR-beta, 1 uM compound, read-out: % residual activity class (FIG. 3)
# [42] = read-out: Residual activity (%) at 1 uM
# [43] = read-out: Residual activity (%) at 1 uM, RET
# [44] = read-out: % residual activity class (FIG. 3)
# T14 sequence (P09619 33-1106): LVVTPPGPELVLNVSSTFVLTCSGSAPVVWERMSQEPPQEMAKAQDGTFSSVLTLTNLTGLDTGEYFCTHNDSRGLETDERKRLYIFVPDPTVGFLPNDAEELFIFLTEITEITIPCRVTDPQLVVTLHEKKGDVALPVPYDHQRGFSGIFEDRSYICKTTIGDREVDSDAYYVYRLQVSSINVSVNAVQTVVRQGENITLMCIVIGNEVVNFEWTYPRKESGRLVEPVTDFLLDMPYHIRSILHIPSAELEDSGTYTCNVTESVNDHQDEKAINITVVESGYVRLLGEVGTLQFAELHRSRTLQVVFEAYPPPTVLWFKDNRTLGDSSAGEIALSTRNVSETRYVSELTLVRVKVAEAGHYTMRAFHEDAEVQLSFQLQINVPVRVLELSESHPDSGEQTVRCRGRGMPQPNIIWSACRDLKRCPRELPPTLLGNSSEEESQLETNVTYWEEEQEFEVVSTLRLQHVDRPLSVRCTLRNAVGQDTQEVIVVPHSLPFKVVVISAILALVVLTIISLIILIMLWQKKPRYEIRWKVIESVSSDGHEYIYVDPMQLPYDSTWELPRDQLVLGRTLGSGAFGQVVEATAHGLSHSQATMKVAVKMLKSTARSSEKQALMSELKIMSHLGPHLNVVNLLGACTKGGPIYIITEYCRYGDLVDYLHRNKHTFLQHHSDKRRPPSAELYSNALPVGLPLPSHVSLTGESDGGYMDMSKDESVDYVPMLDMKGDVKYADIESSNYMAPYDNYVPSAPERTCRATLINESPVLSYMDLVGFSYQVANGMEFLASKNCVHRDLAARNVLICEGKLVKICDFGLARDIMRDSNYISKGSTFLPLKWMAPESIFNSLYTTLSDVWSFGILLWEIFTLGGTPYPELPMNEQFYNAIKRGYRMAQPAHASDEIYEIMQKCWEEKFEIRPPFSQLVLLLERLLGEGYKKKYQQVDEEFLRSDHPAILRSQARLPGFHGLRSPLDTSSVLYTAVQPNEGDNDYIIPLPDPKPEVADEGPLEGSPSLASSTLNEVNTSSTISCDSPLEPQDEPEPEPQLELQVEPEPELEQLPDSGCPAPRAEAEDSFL
# T11 sequence (P29320 21-983): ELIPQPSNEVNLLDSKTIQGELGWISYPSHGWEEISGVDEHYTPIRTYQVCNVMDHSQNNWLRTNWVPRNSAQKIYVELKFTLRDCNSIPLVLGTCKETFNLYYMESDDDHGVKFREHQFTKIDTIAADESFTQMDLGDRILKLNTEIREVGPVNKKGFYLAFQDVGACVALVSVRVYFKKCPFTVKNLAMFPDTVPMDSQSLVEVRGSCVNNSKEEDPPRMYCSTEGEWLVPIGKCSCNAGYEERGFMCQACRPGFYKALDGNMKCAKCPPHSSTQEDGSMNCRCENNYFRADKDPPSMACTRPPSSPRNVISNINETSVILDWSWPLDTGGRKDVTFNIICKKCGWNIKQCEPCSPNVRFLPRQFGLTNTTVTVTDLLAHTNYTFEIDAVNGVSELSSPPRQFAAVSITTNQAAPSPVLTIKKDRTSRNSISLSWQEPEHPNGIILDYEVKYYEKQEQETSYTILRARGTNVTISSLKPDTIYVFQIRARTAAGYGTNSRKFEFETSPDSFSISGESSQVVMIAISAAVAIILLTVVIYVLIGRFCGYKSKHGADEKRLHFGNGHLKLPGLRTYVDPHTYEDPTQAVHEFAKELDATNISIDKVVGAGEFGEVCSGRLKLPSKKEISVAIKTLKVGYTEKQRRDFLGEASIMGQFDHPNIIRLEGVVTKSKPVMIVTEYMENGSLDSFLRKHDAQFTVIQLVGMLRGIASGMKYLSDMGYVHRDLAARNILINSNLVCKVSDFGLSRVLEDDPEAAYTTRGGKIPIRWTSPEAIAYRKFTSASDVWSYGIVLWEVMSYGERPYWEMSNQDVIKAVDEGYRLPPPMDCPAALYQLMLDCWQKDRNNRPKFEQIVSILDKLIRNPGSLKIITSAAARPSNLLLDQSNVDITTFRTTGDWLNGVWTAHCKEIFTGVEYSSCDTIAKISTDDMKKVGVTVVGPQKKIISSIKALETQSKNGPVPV
# T27 sequence (P54762 18-984): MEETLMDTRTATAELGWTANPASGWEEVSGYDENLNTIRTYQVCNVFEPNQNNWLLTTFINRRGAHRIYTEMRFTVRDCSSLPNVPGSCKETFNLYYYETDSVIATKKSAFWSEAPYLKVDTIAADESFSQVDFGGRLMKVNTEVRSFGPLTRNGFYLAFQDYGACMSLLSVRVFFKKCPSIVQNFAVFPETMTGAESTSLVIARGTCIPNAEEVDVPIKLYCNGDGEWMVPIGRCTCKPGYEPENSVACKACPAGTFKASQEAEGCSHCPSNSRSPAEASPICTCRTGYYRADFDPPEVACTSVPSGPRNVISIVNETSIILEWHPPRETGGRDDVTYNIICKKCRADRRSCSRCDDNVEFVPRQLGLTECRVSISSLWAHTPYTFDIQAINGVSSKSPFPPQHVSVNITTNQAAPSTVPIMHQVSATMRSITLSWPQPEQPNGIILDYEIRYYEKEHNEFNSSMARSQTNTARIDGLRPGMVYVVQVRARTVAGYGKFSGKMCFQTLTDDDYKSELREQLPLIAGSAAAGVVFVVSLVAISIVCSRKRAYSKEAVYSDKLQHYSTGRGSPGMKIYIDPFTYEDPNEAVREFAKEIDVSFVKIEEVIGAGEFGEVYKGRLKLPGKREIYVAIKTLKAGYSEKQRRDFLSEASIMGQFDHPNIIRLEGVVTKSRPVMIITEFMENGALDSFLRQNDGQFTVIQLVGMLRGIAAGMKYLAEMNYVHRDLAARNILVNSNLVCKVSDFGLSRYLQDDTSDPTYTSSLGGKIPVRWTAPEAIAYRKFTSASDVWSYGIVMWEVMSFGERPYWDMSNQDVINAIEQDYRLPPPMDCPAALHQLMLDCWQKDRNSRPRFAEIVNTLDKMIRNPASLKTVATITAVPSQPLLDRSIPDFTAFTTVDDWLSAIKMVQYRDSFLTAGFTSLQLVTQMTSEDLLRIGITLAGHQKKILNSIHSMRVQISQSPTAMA
# T18 sequence (P07949 29-1114): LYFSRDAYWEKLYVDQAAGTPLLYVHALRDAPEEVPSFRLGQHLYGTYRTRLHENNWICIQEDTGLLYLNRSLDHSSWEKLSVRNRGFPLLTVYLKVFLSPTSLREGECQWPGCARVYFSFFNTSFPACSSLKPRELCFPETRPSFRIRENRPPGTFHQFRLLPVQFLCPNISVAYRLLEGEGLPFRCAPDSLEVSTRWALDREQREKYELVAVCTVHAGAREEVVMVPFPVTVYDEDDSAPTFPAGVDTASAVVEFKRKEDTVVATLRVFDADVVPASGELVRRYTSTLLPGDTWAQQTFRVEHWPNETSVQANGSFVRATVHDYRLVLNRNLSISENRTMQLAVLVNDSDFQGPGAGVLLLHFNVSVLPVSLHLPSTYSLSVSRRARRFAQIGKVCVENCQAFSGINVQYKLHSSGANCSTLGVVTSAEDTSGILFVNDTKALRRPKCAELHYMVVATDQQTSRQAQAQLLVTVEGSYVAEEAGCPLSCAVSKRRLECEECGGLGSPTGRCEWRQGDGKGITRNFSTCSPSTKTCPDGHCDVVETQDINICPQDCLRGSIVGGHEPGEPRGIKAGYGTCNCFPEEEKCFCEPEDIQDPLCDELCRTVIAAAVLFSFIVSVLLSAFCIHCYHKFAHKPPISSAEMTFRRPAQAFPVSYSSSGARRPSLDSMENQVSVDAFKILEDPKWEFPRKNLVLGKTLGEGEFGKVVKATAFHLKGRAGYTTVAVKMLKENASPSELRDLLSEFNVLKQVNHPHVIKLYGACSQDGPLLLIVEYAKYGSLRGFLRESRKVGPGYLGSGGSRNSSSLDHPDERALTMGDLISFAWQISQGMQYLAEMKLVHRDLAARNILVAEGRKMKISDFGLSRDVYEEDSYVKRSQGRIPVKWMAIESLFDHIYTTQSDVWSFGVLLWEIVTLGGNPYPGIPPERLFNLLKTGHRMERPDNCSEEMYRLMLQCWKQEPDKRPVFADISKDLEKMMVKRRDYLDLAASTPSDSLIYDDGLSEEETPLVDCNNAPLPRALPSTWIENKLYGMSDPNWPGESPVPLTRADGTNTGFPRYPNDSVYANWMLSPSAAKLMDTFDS
# T2 sequence (P42681 whole entry): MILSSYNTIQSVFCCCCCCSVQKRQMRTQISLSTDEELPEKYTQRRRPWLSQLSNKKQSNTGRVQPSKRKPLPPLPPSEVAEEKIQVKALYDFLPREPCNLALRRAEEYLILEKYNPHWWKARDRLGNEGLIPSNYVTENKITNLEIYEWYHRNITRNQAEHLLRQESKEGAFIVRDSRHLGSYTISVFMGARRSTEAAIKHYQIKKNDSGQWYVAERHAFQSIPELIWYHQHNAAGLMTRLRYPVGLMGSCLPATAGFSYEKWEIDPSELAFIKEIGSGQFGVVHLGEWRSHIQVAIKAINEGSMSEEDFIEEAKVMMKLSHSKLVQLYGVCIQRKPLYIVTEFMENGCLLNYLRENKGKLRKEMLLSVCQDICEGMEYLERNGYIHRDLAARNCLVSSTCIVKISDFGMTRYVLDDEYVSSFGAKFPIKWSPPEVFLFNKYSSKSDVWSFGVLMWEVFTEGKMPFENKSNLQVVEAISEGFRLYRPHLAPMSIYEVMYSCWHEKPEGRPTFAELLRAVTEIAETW
# T29 sequence (P41240 whole entry): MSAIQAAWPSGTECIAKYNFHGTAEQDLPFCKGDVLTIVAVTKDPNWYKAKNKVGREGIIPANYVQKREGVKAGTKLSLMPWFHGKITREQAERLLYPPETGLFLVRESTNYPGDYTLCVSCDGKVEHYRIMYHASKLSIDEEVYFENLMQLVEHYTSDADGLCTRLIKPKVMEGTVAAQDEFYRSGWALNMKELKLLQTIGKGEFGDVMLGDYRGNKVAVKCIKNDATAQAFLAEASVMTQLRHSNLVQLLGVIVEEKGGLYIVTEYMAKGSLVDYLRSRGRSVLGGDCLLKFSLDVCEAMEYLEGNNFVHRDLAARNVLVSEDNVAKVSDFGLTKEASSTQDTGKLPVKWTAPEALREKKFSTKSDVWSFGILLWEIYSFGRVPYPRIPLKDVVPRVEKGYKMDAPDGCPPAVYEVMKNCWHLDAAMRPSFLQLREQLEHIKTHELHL
smiles,measurement,setting,value
"Cc1nc(Nc2ncc(C(=O)Nc3c(C)cccc3Cl)s2)cc(N2CCN(CCO)CC2)n1 [Compound A8, N-(2-chloro-6-methylphenyl)-2-((6-(4-(2-hydroxyethyl)piperazin-1-yl)-2-methylpyrimidin-4-yl)amino)thiazole-5-carboxamide, reference compound]",remaining activity at 1 µM,[1],25 to 50%
same,remaining activity at 1 µM,[2],< 25%
same,remaining activity at 1 µM,[3],< 25%
same,remaining activity at 1 µM,"[4]; SIK2, 1 uM compound",< 25%
same,remaining activity at 1 µM,[5],< 25%
same,remaining activity at 1 µM,[6],< 25%
same,Mean Papp A > B,[7],21
same,remaining activity at 1 µM,"[8]; ACV-R1B, 1 uM compound",< 25%
same,remaining activity at 1 µM,[9],< 25%
same,remaining activity at 1 µM,[10],< 25%
same,remaining activity at 1 µM,[11],< 25%
same,remaining activity at 1 µM,[12],< 25%
same,remaining activity at 1 µM,[13],< 25%
same,Mean Papp A > B,[14],2.4
same,remaining activity at 1 µM,"[15]; EPHA3, 1 uM compound, read-out: % residual activity class (FIG. 3)",< 25%
same,remaining activity at 1 µM,[16],< 25%
same,remaining activity at 1 µM,[17],< 25%
same,remaining activity at 1 µM,[18]; [41],< 25%
same,remaining activity at 1 µM,[18]; [42],2%
same,remaining activity at 1 µM,"[19]; EPHB2, 1 uM compound",< 25%
same,remaining activity at 1 µM,[20],< 25%
same,remaining activity at 1 µM,"[21]; SIK1, 1 uM compound",< 25%
same,Residual activity (%) at 1 uM,"[22]; RET, 1 µM",39%
same,remaining activity at 1 µM,"[22]; RET, 1 uM compound, read-out: % residual activity class (FIG. 3)",25 to 50%
same,remaining activity at 1 µM,[22]; [43],< 40%
same,remaining activity at 1 µM,[23],< 25%
same,remaining activity at 1 µM,[24],< 25%
same,remaining activity at 1 µM,[25],< 25%
same,remaining activity at 1 µM,[26],< 25%
same,remaining activity at 1 µM,[27],< 25%
same,remaining activity at 1 µM,"[28]; SIK3, 1 uM compound",< 25%
same,remaining activity at 1 µM,"[29]; ACV-R1, 1 uM compound",< 25%
same,remaining activity at 1 µM,"[30]; p38-alpha, 1 uM compound",< 25%
same,remaining activity at 1 µM,"[31]; MAP4K5, 1 uM compound",< 25%
same,remaining activity at 1 µM,[32]; [44],< 25%
same,remaining activity at 1 µM,[33],< 25%
same,remaining activity at 1 µM,[34],< 25%
"Cc1nc(Nc2ncc(C(=O)Nc3c(Cl)ccnc3C)s2)cc(N2CCN(CCO)CC2)n1 [Compound B3, N-(4-chloro-2-methylpyridin-3-yl)-2-((6-(4-(2-hydroxyethyl)piperazin-1-yl)-2-methylpyrimidin-4-yl)amino)thiazole-5-carboxamide]",remaining activity at 1 µM,[2],< 25%
same,remaining activity at 1 µM,"[35]; EPHB4, 1 uM compound, read-out: % residual activity class (FIG. 3)",< 25%
same,remaining activity at 1 µM,[35]; [42],1%
same,remaining activity at 1 µM,[3],< 25%
same,remaining activity at 1 µM,[4],< 25%
same,remaining activity at 1 µM,[5],< 25%
same,remaining activity at 1 µM,[6],< 25%
same,Mean recovery B > A,[7],120%
same,remaining activity at 1 µM,[8],25 to 50%
same,remaining activity at 1 µM,[9],< 25%
same,remaining activity at 1 µM,[10],< 25%
same,remaining activity at 1 µM,[11],< 25%
same,remaining activity at 1 µM,[12],< 25%
same,remaining activity at 1 µM,[13],< 25%
same,Mean recovery A > B,[14],93%
same,remaining activity at 1 µM,[36]; [44],< 25%
same,remaining activity at 1 µM,[36]; [42],10%
same,remaining activity at 1 µM,[15]; [44],< 25%
same,remaining activity at 1 µM,[15]; [42],0%
same,remaining activity at 1 µM,[37],25 to 50%
same,remaining activity at 1 µM,[16],< 25%
same,remaining activity at 1 µM,[17],< 25%
same,remaining activity at 1 µM,[18]; [41],< 25%
same,remaining activity at 1 µM,[18]; [42],6%
same,remaining activity at 1 µM,[38]; [44],< 25%
same,remaining activity at 1 µM,[38]; [42],3%
same,remaining activity at 1 µM,[19],< 25%
same,remaining activity at 1 µM,[20],< 25%
same,remaining activity at 1 µM,[21],< 25%
same,remaining activity at 1 µM,[22]; [43],~100%
same,Half-life,[39],58 min
same,remaining activity at 1 µM,[23],25 to 50%
same,remaining activity at 1 µM,[40],< 25%
same,remaining activity at 1 µM,[25],< 25%
same,remaining activity at 1 µM,[26],< 25%
same,remaining activity at 1 µM,[27],25 to 50%
same,remaining activity at 1 µM,[28],< 25%
same,remaining activity at 1 µM,[29],25 to 50%
same,remaining activity at 1 µM,[30],25 to 50%
same,remaining activity at 1 µM,[31],25 to 50%
same,remaining activity at 1 µM,[32]; [44],< 25%
same,remaining activity at 1 µM,[32]; [42],0%
same,remaining activity at 1 µM,[33],25 to 50%
same,remaining activity at 1 µM,[34],< 25%
